# From patent US9126891B2, “Cycloalkyl-diamines” (MediSynergics, LLC, priority 2014, dated 2015)
# pIC50: −log10 of the molar value.
# Assays:
# P. falciparum strain 3D7 = test: Plasmodium falciparum activity assay (SYBR Green I method); assay type: cell-based; settings: strain 3D7 in human erythrocytes, 72 h incubation
# Method: P. falciparum strain 3D7 was cultured according to the method of Trager and Jensen (W. Trager, J. B. Jensen (1976) “Human malaria parasites in continuous culture”, Science, 193(4254):673-5) with minor modifications. Parasites were grown in human erythrocytes (2% hematocrit) in an atmosphere of 5% CO2, 5% O2, 90% N2 in RPMI 1640 medium (Gibco) supplemented with 25 mM hepes buffer (Sigma), 25 mg/L gentamicin (Gibco, Life Technologies, Grand Island, N.Y.), 1 mM sodium pyruvate (Sigma), 50 mg/L hypoxanthine (Sigma), 2 g/L glucose (Sigma), 2.52 g/L sodium bicarbonate (Sigma) and 5 g/L Albumax 1 (Gibco). In vitro antimalarial activity was determined by the SYBR Green I method described by Smilkstein (Smilkstein M, Sriwilaijaroen N, Kelly J X, Wilairat P, Riscoe M. (2004) “Simple and inexpensive fluorescence-based technique for high-throughput antimalarial drug screening”. Antimicrob. Agents Chemother., 48(5):1803-6. PMCID: 400546) with modifications (see Winter R W, Kelly J X, Smilkstein M J, Dodean R, Bagby G C, Rathbun R K (2006) “Evaluation and lead optimization of anti-malarial acridones”. Exp. Parasitol., 114(1):47-56). […] After incubation for 1 h at room temperature in the dark, plates were read on a Safire2 (Tecan) plate reader with excitation and emission wavelengths of […], respectively. […]
# [1] = system: T. brucei brucei clone 427-221a (bloodstream forms); test: T. brucei brucei growth inhibition assay (CellTiter-Glo ATP bioluminescence); assay type: cell-based; settings: 40 hours incubation, 95% Confidence Intervals in parentheses, read-out: T. b. brucei IC50
# Method: The growth inhibition assay for T. brucei brucei was conducted as described previously by Z. B. Mackey (Kenny K. H. Ang, Joseline Ratnam, Jiri Gut, Jennifer Legac, Elizabeth Hansell, Zachary B. Mackey, Katarzyna M. Skrzypczynska, Anjan Debnath, Juan C. Engel, Philip J. Rosenthal, James H. McKerrow, Michelle R. Arkin, Adam R. Renslo (2010) “Mining a Cathepsin Inhibitor Library for New Antiparasitic Drug Leads”, PLoS Neglected Tropical Diseases, 5(5):e1023). Bloodstream forms of the monomorphic T. brucei brucei clone 427-221a were grown in complete HMI-9 medium containing 10% FBS, 10% Serum Plus medium (Sigma Inc., St. Louis, Mo., USA), 50 U/mL penicillin and […] streptomycin (Invitrogen) at 370 C under a humidified atmosphere and 5% CO2. […] of each dilution was added to […] of diluted parasites ([…]) in sterile Greiner 96-well flat white opaque culture plates such that the final DMSO concentration was 0.5%. The 0% inhibition control wells contained 0.5% DMSO while 100% inhibition control wells contained 50 mM thimerosal (Sigma-Aldrich, St. Louis, Mo.). After compound addition, plates were incubated for 40 hours at 370 C. At the end of the incubation period, […] of CellTiter-Glo™ reagent (Promega Inc., Madison, Wis., USA) was added to each well and plates were placed on an orbital shaker at room temperature for 2 min to induce lysis. After an additional 10 min of incubation without shaking, to stabilize the signal, the ATP-bioluminescence of each well was determined using an Analyst HT Plate Reader (Molecular Devices, Sunnyvale, Calif., USA). Raw values were converted to log 10 and percentage inhibition calculated relative to the controls. IC50 curve fittings were performed with Prism 4 software as above. Pentamidine was used as a comparator in the assay.
SMILES,pIC50 (P. falciparum strain 3D7),pIC50 [1]
"CN[C@@]1(c2ccccc2Cl)CCCC[C@H]1NCCCc1ccccc1 (relative stereo) [Example 15b, Cis-1-(2-chlorophenyl)-N^2-(3-phenylpropyl)-N^1-methylcyclohexane-1,2-diamine]",5.60,5.34
"CN[C@]1(c2ccccc2Cl)CCCC[C@H]1NCCCn1ccnc1 (relative stereo) [Example 12a, Trans-1-(2-chlorophenyl)-N^2-(3-(1-imidazolyl)-propyl)-N^1-methylcyclohexane-1,2-diamine]",–,4.80
"CN[C@@]1(c2ccccc2Cl)CCCC[C@H]1NCCCN1CCOCC1 (relative stereo) [Example 16b, Cis-1-(2-chlorophenyl)-N^2-(3-(morpholin-1-yl)propyl)-N^1-methylcyclohexane-1,2-diamine]",4.74,5.77
